Measured values reported in article PMC5665643, “CHIP as a membrane-shuttling proteostasis sensor” (eLife, 2017).
Entries after “also recorded” stand apart in the source; their conditions may differ.

What was measured:
[1] = system: EGFP-CHIP-K30A in murine embryonic fibroblasts; assay: Release of EGFP-CHIP-K30A from cellular membranes (PLD inhibitors); type: cell-based; conditions: 12 hr inhibitor treatment in serum-free DMEM, without fixation; *p<0.05 (chi-square); N = 4
CHIP [2] = assay: Lipid-binding assay (membrane-immobilized lipids, lipid arrays); parameters: species or system Human; conditions: for CHIP binding to phospholipid on lipid array: lipid strips/PIP strips, 0.5 µg/ml wild-type chaperone-free CHIP, 1 hr at RT, anti-C-CHIP antibody
Protocol: (§1) Human recombinant full length CHIP and its truncated versions were purified from Escherichia coli BL21 cells using Glutathion Sepharose 4B (GE Healthcare). Sepharose-bound GST-CHIP was subjected to overnight treatment with PreScission protease and the released tag-free protein was collected. Size exclusion chromatography on a HiLoad Superdex 200 column (GE Healthcare) followed to ensure the purity and homogeneity of proteins. All CHIP variants were kept in HSP70 buffer (25 mM HEPES KOH pH 7.5, 150 mM KCl, 5 mM MgCl2, 5% glycerol, 1 mM DTT).
Membrane-immobilized lipids (Membrane lipid strips P-6002 and PIP strips P-6001) were purchased from Echelon Research Laboratories. The strips were incubated with blocking buffer (3% fatty acid free BSA, 0.1% (v/v) Tween-20 in PBS pH 7.5) for 1 hr at RT. 0.5 µg/ml of purified wild-type or mutant CHIP was added in blocking buffer and incubated for 1 hr at RT. Strips were washed and bound proteins were detected using anti-C-CHIP antibody. For competition experiments, ten times molar excess of C-terminal HSP70 was added to CHIP in blocking buffer.

CHIP [3] = assay: Liposome pelleting assay, effect of lipids and HSP70-C on CHIP association; type: binding, Human
Protocol: as §1
Human C-terminal HSP70 6xHis-tagged N-terminally was purified from Escherichia coli BL21 cells using 1 ml HisTrap column (GE Healthcare). Bound protein was eluted by applying an imidazole gradient. Fractions containing the protein were subjected to size exclusion chromatography using HiLoad Superdex 200 in HSP70 buffer. His-NQO1, His-UbcH5a, His-Uev1a and His-Ubc13 were purified similarly except that PBS/1 mM DTT was used during size exclusion chromatography. Purity of recombinant protein was evaluated by SDS-PAGE and Coomassie BB G-250 (CBB) staining. Concentration of proteins was determined measuring absorbance at 280 nm and using ProtParam (ExPASy) to calculate respective extinction coefficients. Proteins were aliquoted, snap-frozen and stored at −80°C.
Liposomes were prepared by mixing 1,2-dioleoyl-sn-glycero-3-phosphocholine (DOPC) with indicated amount (wt/wt) of either 1,2-dipalmitoyl-sn-glycero-3-phosphate (phosphatidic acid) or (wt/wt) 1,2-dipalmitoyl-sn-glycero-3-phosphoinositol-4-phosphate (PI4P) in a 1.5 ml reaction tube (Eppendorf). Lipid mixtures were dried under a nitrogen stream and kept for 1 hr under vacuum. Liposomes were rehydrated in 1 ml filtered reconstitution buffer (25 mM HEPES KOH pH 7.5, 50 mM NaCl) to a concentration of 10 mM lipids. Liposomes were reconstituted by shaking at 2000 rpm for 1 hr at 50°C, followed by sonication for 1 hr at 50°C in a water bath. The liposome suspension was subjected to five freeze-thaw cycles in liquid nitrogen to promote unilamellar vesicle formation, aliquoted in 200 µl and pulse-sonicated for 8 s at 45% output with MS72 sonotrode (Bandelin) to create a population of homogenously sized liposomes as determined using NanoSight (Malvern Instruments). Sonicated liposomes were pooled, aliquoted again, snap-frozen and stored at −80°C.
2 mM liposomes were mixed with 2 µM recombinant protein in 50 µl reconstitution buffer. The suspension was incubated shaking at 450 rpm for 30 min at 37°C. Liposomes with bound protein were sedimented by ultracentrifugation at 100,000 g for 30 min at 25°C. Liposome pellet was washed with 50 µl of reconstitution buffer and sedimented again at 100,000 g for 30 min at 25°C. The pellet was resuspended in 10 µl reconstitution buffer, resolved by SDS-PAGE and analyzed by CBB staining. Images were acquired with ChemiDoc MP imaging system and quantified using Image Lab 5.0 software (both from Bio-Rad Laboratories). For competition assays, indicated amounts of C-terminal HSP70 were preincubated with 2 µM CHIP for 20 min at 37°C prior to co-sedimentation.

[4] = system: EGFP-CHIP in murine embryonic fibroblasts; assay: EGFP-CHIP relocalization to membranes in murine embryonic fibroblasts (fluorescence microscopy); type: cell-based; conditions: N = 3; for EGFP-CHIP relocalization to the plasma membrane: 20 μM inhibitor for 4 hr, 37°C, serum-free medium, without fixation, EGFP as control, ***p<0.001, chi-square
[5] = target: C-terminal Hsp70-interacting protein (CHIP), human recombinant full length, wild type, tag-free (human) (UniProt Q9UNE7)
[6] = target: T1, C-terminal Hsp70-interacting protein (CHIP), human recombinant full length, wild type, tag-free (human, UniProt Q9UNE7 1-303); assay: ITC; 10 µM protein in the cell, 200 µM GPTIEEVD peptide in the syringe, 25 injections of 8 µl every 3 min, 37°C, HSP70 buffer (25 mM HEPES KOH pH 7.5, 150 mM KCl, 5 mM MgCl2, 5% glycerol, 1 mM DTT); independent binding model; conditions: both partners purified
T1 construct: also called WT; wild-type CHIP; source: E. coli BL21, purified (Glutathion Sepharose 4B, PreScission protease, SEC on Superdex 200)
T1 sequence (looked up): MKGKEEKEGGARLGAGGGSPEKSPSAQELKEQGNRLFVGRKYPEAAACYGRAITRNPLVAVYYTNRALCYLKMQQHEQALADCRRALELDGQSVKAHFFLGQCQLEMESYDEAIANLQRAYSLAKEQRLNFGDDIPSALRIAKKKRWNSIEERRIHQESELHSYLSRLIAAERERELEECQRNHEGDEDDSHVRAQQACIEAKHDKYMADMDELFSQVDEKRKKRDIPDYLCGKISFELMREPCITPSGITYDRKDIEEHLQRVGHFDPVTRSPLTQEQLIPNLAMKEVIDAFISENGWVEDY

[7] = Liposome pelleting assay, binding of CHIP and truncated variants to liposomes; conditions: N = 3
Excerpt: For mammalian expression of EGFP, the expression vector pEGFP-N1 from Clontech (Mountain View, CA) was used. N-terminal EGFP-CHIP fusion protein was constructed by cloning human CHIP coding sequence in pEGFP-C2 vector (Clontech) using HindIII and BamHI restriction sites. A fusion between the N-terminalβ−1,4-galactosyltransferase1 and EGFP was used as a marker of the Golgi apparatus, farnesylated EGFP as a marker of plasma membrane (both constructs from Clontech). Untagged and 3xFLAG-tagged human CHIP for mammalian expression were constructed in pCMV-10 vector (Sigma-Aldrich). HSP70 was amplified from human cDNA and cloned into pcDNA3. 1 expression vector without a tag. HSP70 lacking the last amino acid (HSP70ΔD) was prepared by site-directed mutagenesis. Vectors of full-length CHIP, UbcH5a and mutant NQO1 for bacterial expression were prepared as described ([Martínez-Limón et al., 2016]). The TPR domain bacterial expression vector (TPR) was created by exchanging glutamate152 codon to a stop codon in the full-length CHIP vector. CHIP without TPR domain (ΔTPR) was cloned by deleting the sequence between serine25 and argininge130 by means of PCR. […]
Liposomes were prepared by mixing 1,2-dioleoyl-sn-glycero-3-phosphocholine (DOPC) with indicated amount (wt/wt) of either 1,2-dipalmitoyl-sn-glycero-3-phosphate (phosphatidic acid) or (wt/wt) 1,2-dipalmitoyl-sn-glycero-3-phosphoinositol-4-phosphate (PI4P) in a 1.5 ml reaction tube (Eppendorf). […] The liposome suspension was subjected to five freeze-thaw cycles in liquid nitrogen to promote unilamellar vesicle formation, aliquoted in 200 µl and pulse-sonicated for 8 s at 45% output with MS72 sonotrode (Bandelin) to create a population of homogenously sized liposomes as determined using NanoSight (Malvern Instruments). […]
2 mM liposomes were mixed with 2 µM recombinant protein in 50 µl reconstitution buffer. […] The pellet was resuspended in 10 µl reconstitution buffer, resolved by SDS-PAGE and analyzed by CBB staining. Images were acquired with ChemiDoc MP imaging system and quantified using Image Lab 5.0 software (both from Bio-Rad Laboratories). […]

In the case of `O=C(NCCN1CCC(n2c(=O)[nH]c3ccccc32)CC1)c1cc2cc(F)ccc2[nH]1` [FIPI], the “release of EGFP-CHIP-K30A from membranes into the cytosol” value [1] is reported as “efficiently released chaperone-free CHIP into the cytosol”.

In the case of `C[C@@H](CN1CCC(n2c(=O)[nH]c3cc(Cl)ccc32)CC1)NC(=O)c1ccc2ccccc2c1` [VU0155069], the “release of EGFP-CHIP-K30A from membranes into the cytosol” value [1] is reported as “efficiently released chaperone-free CHIP into the cytosol”.

With “phosphatidylinositol-3,4,5-trisphosphate” the “CHIP binding to phospholipid on lipid array” value (CHIP [2]) was “no binding to phosphatidylinositol-3,4,5-trisphosphate detected”.

For “HSP70-C: last 260 amino acids of human HSPA1A, C-terminal domain of HSP70”, the “CHIP binding to lipid arrays in the presence of HSP70-C” value (CHIP [2]; ten-fold molar excess HSP70-C, 0.5 µg/ml CHIP, RT) was “blocks interaction of CHIP with phospholipids; also recorded: complete loss of binding to phosphatidylinositol monophosphates and only residual interaction with phosphatidic acid”, the “inhibition of CHIP interaction with liposomes” value (CHIP [3]; 1 μM HSP70-C (substoichiometric), preincubated with 2 µM CHIP 20 min at 37°C, N = 4) was “efficiently prevented CHIP from interacting with liposomes” and the “CHIP association with liposomes, % of control” value (CHIP [3]; equimolar HSP70-C, preincubated with 2 µM CHIP 20 min at 37°C, N = 4) was “ca. 30%”.

For `O[As](O)O` [arsenite], the “CHIP relocalization to membranes” value [4] was “does not induce CHIP relocalization to membranes in murine fibroblasts; also recorded: not induced by arsenite treatment”.

In the case of “C-terminal domain of HSP70, 260 amino acids (HSP70-C) (from UniProt P0DMV8 382-641) (domain or fragment)”, the association of 2 µM CHIP with liposomes in the pelleting assay after preincubation with HSP70-C (1 µM, substoichiometric, to an equimolar amount), relative to the control without HSP70-C (% of the control) [5] is reported as 30.

For `CCCCCCCCCCCCCCCC(=O)OC[C@H](COP(=O)(O)O[C@H]1[C@H](O)[C@@H](O)[C@H](OP(=O)(O)O)[C@@H](O)[C@H]1O)OC(=O)CCCCCCCCCCCCCCC` [PI4P, 1,2-dipalmitoyl-sn-glycero-3-phosphoinositol-4-phosphate], the “CHIP binding to phospholipid on lipid array” value (CHIP [2]) was “especially PI4P”, the “CHIP association with DOPC-liposomes (pelleting), 1% PI4P” value (CHIP [3]; 1% PI4P, 2 mM liposomes, 2 µM CHIP, 30 min at 37°C, N = 3) was “weakly” and the “CHIP association with DOPC-liposomes (pelleting), 5% PI4P” value (CHIP [3]; 5% PI4P, 2 mM liposomes, 2 µM CHIP, 30 min at 37°C, ***p<0.001, N = 3) was “strongly enhanced association of liposomes with CHIP; also recorded: strongly enhance CHIP association with DOPC-liposomes”.

For `C=CCNC1=C2C[C@@H](C)C[C@H](OC)[C@H](O)[C@@H](C)/C=C(\C)[C@H](OC(N)=O)[C@@H](OC)/C=C\C=C(/C)C(=O)NC(=CC1=O)C2=O` [17-AAG, 17-(Allylamino)−17-demethoxygeldanamycin], the “EGFP-CHIP relocalization to the plasma membrane” value [4] was “mimic the heat shock effect in regard to CHIP relocalization to membranes in murine fibroblasts; also recorded: leads to the appearance of EGFP-CHIP, but not of EGFP, at the plasma membrane”.

With `N#Cc1ccc(COC[C@H]2O[C@@H](n3c(NCc4ccc(Cl)c(Cl)c4)nc4c(N)ncnc43)[C@H](O)[C@@H]2O)cc1` [VER-155008] the “EGFP-CHIP relocalization to the plasma membrane” value [4] was “mimic the heat shock effect in regard to CHIP relocalization to membranes in murine fibroblasts; also recorded: leads to the appearance of EGFP-CHIP, but not of EGFP, at the plasma membrane”.

B1: C-terminal HSP70 octapeptide GPTIEEVD (peptide)
peptide: GPTIEEVD
notes: last eight residues of HSP70 (HSPA1A); also called HSP70 peptide; HSP70 C-terminal peptide; source: synthetic peptide (custom-synthetized by GenScript)
With B1 the Kd [6] was 5 µM.

B2: TPR domain: glutamate152 codon exchanged to a stop codon in full-length CHIP (protein, UniProt Q9UNE7 1-151, looked up, fragment)
chain: MKGKEEKEGGARLGAGGGSPEKSPSAQELKEQGNRLFVGRKYPEAAACYGRAITRNPLVAVYYTNRALCYLKMQQHEQALADCRRALELDGQSVKAHFFLGQCQLEMESYDEAIANLQRAYSLAKEQRLNFGDDIPSALRIAKKKRWNSIE
modifications: TPR domain
notes: glutamate152 codon exchanged to a stop codon in full-length CHIP
In the case of B2, the “binding capacity versus full-length CHIP” value ([7]; 5% PA-containing DOPC-liposomes) is reported as “still surpassed the full-length CHIP in binding capacity” and the “binding efficiency relative to full-length protein” value ([7]; isolated TPR domain, 20% PA-containing liposomes, 2 µM protein) is reported as “ca. 160%”.
